These compounds were tested against T1, purified STEP46 enzyme (Homo sapiens, UniProt P54829) (assay: STEP46 biochemical assay (DiFMUP fluorescence phosphatase assay)). Conditions: DiFMUP 10 μM, read-out: STEP IC50.
T1 sequence (P54829 1-565): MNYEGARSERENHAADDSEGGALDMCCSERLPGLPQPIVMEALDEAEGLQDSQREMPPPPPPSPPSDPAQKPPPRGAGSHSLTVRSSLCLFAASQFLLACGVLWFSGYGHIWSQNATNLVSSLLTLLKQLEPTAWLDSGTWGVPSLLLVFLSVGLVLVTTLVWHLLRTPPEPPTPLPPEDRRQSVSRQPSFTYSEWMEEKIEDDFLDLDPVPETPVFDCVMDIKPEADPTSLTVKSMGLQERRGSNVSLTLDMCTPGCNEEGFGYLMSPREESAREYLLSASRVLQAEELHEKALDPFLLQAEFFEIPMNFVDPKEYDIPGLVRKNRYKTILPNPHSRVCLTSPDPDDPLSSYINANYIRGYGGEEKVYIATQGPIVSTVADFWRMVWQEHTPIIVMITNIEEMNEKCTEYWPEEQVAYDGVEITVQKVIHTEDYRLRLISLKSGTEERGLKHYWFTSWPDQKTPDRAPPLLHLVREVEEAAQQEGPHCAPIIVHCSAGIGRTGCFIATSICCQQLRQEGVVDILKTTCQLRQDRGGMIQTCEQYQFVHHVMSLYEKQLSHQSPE
Method in brief: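 Compounds preincubated 30 min at room temperature with purified STEP46 (1 ng/well) in 50 mM Hepes, 1 mM DTT, 0.02% Brij35, then 10 μM DiFMUP (final) added for 90 min at 27 °C; 2% DMSO, fluorescence at 360/460 nm. IC50 from four-parameter fit of % inhibition; activators reported as negative % inhibition at 25, 50 and 100 uM.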

Row | SMILES | IC50 [nM]
1 | Fc1ccc(-c2ccc3nc(-c4cccnc4)nc(Nc4ccc(F)c(Cl)c4)c3c2)c(F)c1 [Compound 671] | 1000 to 10000
2 | FC1(F)Oc2ccc(Nc3nc(-c4cccnc4)nc4ccc(-c5cccnc5)cc34)cc2O1 [Compound 312] | < 1000
3 | CN(C)C(=O)COc1ccc2nc(-c3cccnc3)nc(Oc3ccc(Cl)c(Cl)c3)c2c1 [Compound 847] | < 1000
4 | Fc1cccc(-c2ccc3nc(-c4cccnc4)nc(Nc4ccc(F)c(Cl)c4)c3c2)c1 [Compound 634] | 1000 to 10000
5 | NC(=O)c1ccccc1Nc1nc(-c2cccnc2)nc2cc(-c3cc(F)ccc3F)ccc12 [Compound 706] | < 1000
6 | COc1ccc2nc(-c3cccnc3)nc(Nc3ccc4ccoc4c3)c2c1 [Compound 314] | 1000 to 10000
7 | CNc1nc(-c2cccnc2)nc2cc(-c3ccc(F)c(F)c3)ccc12 [Compound 1373] | 1000 to 10000
8 | CNc1nc(-c2cccnc2)nc2ccc(-c3cccc4sccc34)cc12 [Compound 1340] | 1000 to 10000
9 | COc1ccc2nc(-c3cccnc3)nc(Nc3ccccc3C(=O)NCCC(F)(F)F)c2c1 [Compound 899] | 1000 to 10000
10 | CN(C)c1ccc(-c2ccc3nc(-c4cccnc4)nc(Nc4ccc(F)c(Cl)c4)c3c2)cc1 [Compound 668] | < 1000
11 | Fc1ccc(Nc2nc(-c3cccnc3)nc3ccc(-c4cccc(OC(F)(F)F)c4)cc23)cc1Cl [Compound 658] | 1000 to 10000
12 | COc1ccc2nc(-c3cccnc3)nc(Nc3cccc(Br)c3)c2c1 [Compound 425] | 1000 to 10000
13 | Clc1cc(Cl)cc(Nc2nc(-c3cnccn3)nc3ccccc23)c1 [Compound 1222] | 1000 to 10000
14 | Fc1ccc(Nc2nc(-c3cnccn3)nc3cc(Cl)ccc23)cc1F [Compound 1142] | 1000 to 10000
15 | COc1ccc2c(Nc3ccc(F)c(Cl)c3)nc(-c3cnccn3)nc2c1 [Compound 1148] | 1000 to 10000
16 | CNc1nc(-c2cccnc2)nc2cc(-c3cccc(C(C)=O)c3)ccc12 [Compound 1350] | 1000 to 10000
17 | COc1ccc2nc(-c3cccnc3)nc(Nc3ccccc3C(=O)NCc3occc3C)c2c1 [Compound 901] | 1000 to 10000
18 | Fc1ccccc1-c1ccc2c(NCc3ccccn3)nc(-c3cccnc3)nc2c1 [Compound 1425] | 1000 to 10000
19 | Cc1cc(Cl)cc2c(Nc3cccc(OC(F)F)c3)nc(-c3ccnnc3)nc12 [Compound 1165] | < 1000
20 | N#Cc1cccc(Nc2nc(-c3ccnnc3)nc3ccccc23)c1 [Compound 1217] | 1000 to 10000
21 | CCOc1ccc2nc(-c3cncnc3)nc(Nc3ccccc3C(N)=O)c2c1 [Compound 1171] | 1000 to 10000
22 | COc1cncc(-c2ccc3nc(-c4cccnc4)nc(Nc4ccc(F)c(Cl)c4)c3c2)c1 [Compound 660] | < 1000
23 | COc1ccc2nc(-c3cccnc3)nc(Nc3nc(-c4ccc(F)cc4F)cs3)c2c1 [Compound 446] | 1000 to 10000
24 | CNc1nc(-c2cccnc2)nc2cc(-c3ccc(C#N)cc3)ccc12 [Compound 1365] | 1000 to 10000
25 | NC(=O)c1ccccc1Nc1nc(-c2cccnc2)nc2cc(-c3ccc(F)c(F)c3)ccc12 [Compound 703] | < 1000

Row | SMILES | IC50 [nM]
26 | COc1ccc2nc(-c3cccnc3)nc(Nc3nc(-c4ccccc4)cs3)c2c1 [Compound 416] | < 1000
27 | COc1ccc2nc(-c3cccnc3)nc(Nc3ccc4nonc4c3)c2c1 [Compound 332] | < 1000
28 | CCCOCCOc1cccc(-c2ccc3nc(-c4cccnc4)nc(NC)c3c2)c1 [Compound 1497] | 1000 to 10000
29 | CCc1sc(Nc2nc(-c3cccnc3)nc3ccc(OC)cc23)nc1-c1ccccc1 [Compound 463] | 1000 to 10000
30 | CNc1nc(-c2cccnc2)nc2ccc(-c3ccc4sccc4c3)cc12 [Compound 1341] | 1000 to 10000
31 | COc1ccc(Cl)c(Nc2nc(-c3cccnc3)nc3ccc(OC)cc23)c1 [Compound 932] | 1000 to 10000
32 | CNc1nc(-c2cccnc2)nc2cc(-c3ccc(Cl)cc3)ccc12 [Compound 1354] | 1000 to 10000
33 | Fc1ccc(Nc2nc(-c3cccnc3)nc3ccc(-c4ccccc4F)cc23)cc1Cl [Compound 641] | < 1000
34 | Clc1cc(Cl)cc(Nc2nc(-c3ccnnc3)nc3ccccc23)c1 [Compound 1223] | < 1000
35 | COc1ccc2nc(-c3cccnc3)nc(Nc3nnc(-c4ccc(F)cc4)s3)c2c1 [Compound 423] | 1000 to 10000
36 | Cc1cc(Cl)cc2c(Nc3ccc(F)c(Cl)c3)nc(-c3cnccn3)nc12 [Compound 1225] | 1000 to 10000
37 | COc1ccc2nc(-c3cccnc3)nc(Nc3nc(-c4ccc(Cl)cc4)c(C)s3)c2c1 [Compound 461] | 1000 to 10000
38 | Cc1cc(Cl)cc2c(Nc3cc(Cl)cc(Cl)c3)nc(-c3cnccn3)nc12 [Compound 1229] | 1000 to 10000
39 | Cc1cccc(-c2ccc3c(Nc4ccc(F)c(Cl)c4)nc(-c4cccnc4)nc3c2)c1 [Compound 696] | < 1000
40 | COc1ccc2nc(-c3ccnnc3)nc(Nc3cccc(OC(F)(F)F)c3)c2c1 [Compound 1188] | 1000 to 10000
41 | Fc1ccc(Nc2nc(-c3cccnc3)nc3cc(-c4ccccc4)ccc23)cc1Cl [Compound 692] | < 1000
42 | COc1ccc2nc(-c3cccnc3)nc(Nc3nc(-c4ccccc4OC(F)(F)F)cs3)c2c1 [Compound 454] | 1000 to 10000
43 | COc1ncc(-c2ccc3c(Nc4ccc(F)c(Cl)c4)nc(-c4cccnc4)nc3c2)cn1 [Compound 679] | < 1000
44 | CNc1nc(-c2cccnc2)nc2cc(-c3ccc(C#N)cc3)c(C)cc12 [Compound 1410] | 1000 to 10000
45 | CNc1nc(-c2cccnc2)nc2c(C)c(-c3ccc(C#N)cc3)ccc12 [Compound 1452] | < 1000
46 | Clc1ccc2c(Nc3ccc(Cl)c(Cl)c3)nc(-c3ccnnc3)nc2c1 [Compound 1204] | > 10000
47 | CCOc1ccc2nc(-c3ccnnc3)nc(Nc3cccc(OC(F)F)c3)c2c1 [Compound 1167] | 1000 to 10000
48 | COc1ccc2nc(-c3cncnc3)nc(Nc3ccccc3C(N)=O)c2c1 [Compound 1172] | 1000 to 10000
49 | CNC(=O)c1sc(Nc2nc(-c3cccnc3)nc3ccc(OC)cc23)nc1-c1ccccc1 [Compound 1124, 2-(6-methoxy-2-(pyridin-3-yl)quinazolin-4-ylamino)-N-methyl-4-phenylthiazole-5-carboxamide] | < 1000
50 | COc1ccc2nc(-c3cccnc3)nc(Nc3ccccc3C(=O)NC3CCc4ccccc43)c2c1 (centres unmarked) [Compound 898] | > 10000

Row | SMILES | IC50 [nM]
51 | CN(C)c1nc(-c2cccnc2)nc2ccc(-c3cccc(F)c3)cc12 [Compound 1324] | 1000 to 10000
52 | Fc1ccc(Nc2nc(-c3cccnc3)nc3ccc(-c4ccccc4Cl)cc23)cc1Cl [Compound 636] | > 10000
53 | COc1ccc2nc(-c3cccnc3)nc(Oc3ccc4[nH]c(=O)ccc4c3)c2c1 [Compound 346] | 1000 to 10000
54 | CNc1nc(-c2cccnc2)nc2ccc(-c3cccnc3OC)cc12 [Compound 1330] | > 10000
55 | COc1ccc2nc(-c3cnccn3)nc(Nc3ccc(Cl)c(Cl)c3)c2c1 [Compound 1234] | 1000 to 10000
56 | CNc1nc(-c2cccnc2)nc2c(C)c(-c3ccc(F)cc3)ccc12 [Compound 1447] | > 10000
57 | CNc1nc(-c2cccnc2)nc2cc(-c3cccc(C#N)c3)c(C)cc12 [Compound 1409] | 1000 to 10000
58 | COc1ccc2c(Nc3ccc(F)c(Cl)c3)nc(-c3ccnnc3)nc2c1 [Compound 1155] | 1000 to 10000
59 | COc1ccc2nc(-c3ccnnc3)nc(Nc3ccc(Cl)c(Cl)c3)c2c1 [Compound 1184] | 1000 to 10000
60 | COc1ccc2nc(-c3cccnc3)nc(Nc3ccc4c(c3)CCC4)c2c1 [Compound 306] | > 10000
61 | Clc1ccc(Nc2nc(-c3cnccn3)nc3ccccc23)cc1Cl [Compound 1218] | 1000 to 10000
62 | COc1ccc2nc(-c3cccnc3)nc(Nc3nc(-c4cc(F)ccc4F)cs3)c2c1 [Compound 458] | < 1000
63 | Fc1ccc(Nc2nc(-c3ccnnc3)nc3cc(Cl)ccc23)cc1F [Compound 1202] | 1000 to 10000
64 | Clc1cc(Cl)cc(Nc2nc(-c3cnccn3)nc3cc(Cl)ccc23)c1 [Compound 1146] | 1000 to 10000
65 | CCOc1ccc2nc(-c3cccnc3)nc(Nc3nc(-c4ccc(F)cc4F)cs3)c2c1 [Compound 472] | 1000 to 10000
66 | CNc1nc(-c2cccnc2)nc2cc(-c3ccccc3)ccc12 [Compound 1348] | > 10000
67 | Clc1cc(Cl)cc(Nc2nc(-c3ccnnc3)nc3cc(Cl)ccc23)c1 [Compound 1205] | 1000 to 10000
68 | CNc1nc(-c2cccnc2)nc2c(C)c(-c3cccc(F)c3)ccc12 [Compound 1449] | > 10000
69 | CCOc1ccc2nc(-c3cccnc3)nc(Nc3ccc4c(c3)NC(=O)CC4)c2c1 [Compound 337] | < 1000
70 | CNc1nc(-c2cccnc2)nc2ccc(-c3cccc(F)c3F)c(C)c12 [Compound 1285] | > 10000
71 | COc1ccc2nc(-c3cccnc3)nc(Nc3nc(-c4cccc(F)c4F)cs3)c2c1 [Compound 452] | < 1000
72 | Fc1ccc(Nc2nc(-c3ccncn3)nc3ccccc23)cc1Cl [Compound 1206] | 1000 to 10000
73 | Cc1cccc(CNc2nc(-c3cccnc3)nc3cc(-c4cc(F)ccc4F)ccc23)n1 [Compound 1430] | 1000 to 10000
74 | COc1ccc2nc(-c3cccnc3)nc(Nc3ncc(-c4ccccc4)s3)c2c1 [Compound 418] | 1000 to 10000

From patent publication US9630947B2, “Therapeutic compounds and related methods of use” (OTSUKA PHARMACEUTICAL CO., LTD., priority 2009, dated 2017)
